Data from patent US9259450B2, “Use of a fermented soy extract as a prebiotic composition” (MICROBIO CO., LTD., priority 2010, dated 2016).
≈ marks a conversion by molar mass, not a printed value.

Key:
[1] = tested on: Lactobacillus strains (L. rhamnosus BCRC 10940, L. paracasei BCRC 14001, L. delbrueckii BCRC 14008); test: antimicrobial activity (MIC), microtitre plate-based method; format: cell-based; details: 10^5 cfu/ml, 37° C., 24 h, MRS medium, triplicate; read-out: minimal inhibitory concentration (MIC)
Experimental: (§1) Three Lactobacillus strains, L. rhamnosus BCRC 10940, L. paracasei BCRC 14001, L. delbrueckii BCRC 14008, were purchased from the FIRDI, which were cultured in MRS w/o agar medium (Difco) and stored at 4° C. To activate the bacteria, the cells were inoculated in MRS medium at a concentration of 5% (v/v) and cultured at 37° C. for 24 hours, and then 10^7 cells/ml of each of the three Lactobacillus strains was inoculated in 5 ml of MRS medium with shaking overnight.
(§2) Antimicrobial activity of antibiotics against the three Lactobacillus strains was measured by a microtitre plate-based method. […] 10 μl of activated bacterial cultures was added to each well to achieve a concentration of 10^5 cfu/ml per well, and the plates were incubated at 37° C. for 24 h. The growth of the bacteria was measured by absorbance at 600 nm and the survival percentages were determined. Further, the minimal inhibitory concentration (MIC) was determined as the lowest concentration of the antibiotics allowing no visible growth of the bacteria. Data are the averages of a triplicate experiment.

L. rhamnosus [2] = test: microtitre plate-based growth assay, cell number (Table 3); parameters: species or system L. rhamnosus BCRC 10940
Experimental: as §1, §2
(§3) On the other hand, the fermented soy extract prepared of the invention as in Example 1 was analyzed for its prebiotic activity to support the growth of beneficial bacteria using the microtitre plate-based method as described above. The fermented soy extract of the invention was added at a concentration of 5% into the wells and the plates were incubated at 37° C. for 48 h. The cell number was counted.

L. paracasei [3] = test: as above; parameters: species or system L. paracasei BCRC 14001
Experimental: as §1, §2, §3

L. delbrueckii [4] = test: as above; parameters: species or system L. delbrueckii BCRC 14008
Experimental: as §1, §2, §3

L. delbrueckii [5] = test: simultaneous treatment of antibiotics and fermented soy extract, survival counting; format: cell-based; details: FSE 5% where added, 48 h
Experimental: as §1
(§4) The plates were incubated at 37° C. for 48 h.

L. paracasei [6] = test: as above; format: cell-based; details: FSE 5% where added, 48 h
Experimental: as §1, §4

L. rhamnosus [7] = test: as above; format: cell-based; details: FSE 5% where added, 48 h
Experimental: as §1, §4

## CC[C@H]1OC(=O)[C@H](C)[C@@H](O[C@H]2C[C@@](C)(OC)[C@@H](O)[C@H](C)O2)[C@H](C)[C@@H](O[C@@H]2O[C@H](C)C[C@H](N(C)C)[C@H]2O)[C@](C)(OC)C[C@@H](C)C(=O)[C@H](C)[C@@H](O)[C@]1(C)O [CAM, clarithromycin]
[1]
  MIC: 1 µg/mL (≈ 1.34 µM)
L. rhamnosus [2]; antibiotic 1 μg
  cell number L. rhamnosus: 5.10 × 10^4
L. paracasei [3]; antibiotic 1 μg
  cell number L. paracasei: 3.27 × 10^5
L. delbrueckii [4]; antibiotic 1 μg
  cell number L. delbrueckii: 3.45 × 10^5

## CC1(C)S[C@@H]2[C@H](NC(=O)[C@H](N)c3ccccc3)C(=O)N2[C@H]1C(=O)O [AMP, ampicillin]
[1]
  MIC: 3.6 µg/mL (≈ 10.3 µM)
L. rhamnosus [2]; antibiotic 2 μg
  cell number L. rhamnosus: 6.30 × 10^4
L. paracasei [3]; antibiotic 2 μg
  cell number L. paracasei: 3.29 × 10^6
L. delbrueckii [4]; antibiotic 2 μg
  cell number L. delbrueckii: 5.58 × 10^6
L. delbrueckii [5]; antibiotic 2 μg/ml
  survival counting L. delbrueckii: 4330 ± 260
L. paracasei [6]; antibiotic 2 μg/ml
  survival counting L. paracasei: 3670 ± 350
L. paracasei [6]; antibiotic 5 μg/ml
  survival counting L. paracasei: 4700 ± 409
L. rhamnosus [7]; antibiotic 2 μg/ml
  survival counting L. rhamnosus: 967 ± 76
L. rhamnosus [7]; antibiotic 5 μg/ml
  survival counting L. rhamnosus: 230 ± 15

## CC1(C)S[C@@H]2[C@H](NC(=O)[C@H](N)c3ccc(O)cc3)C(=O)N2[C@H]1C(=O)O [AMO, amoxicillin]
[1]
  MIC: 3.6 µg/mL (≈ 9.85 µM)
L. rhamnosus [2]; antibiotic 2 μg
  cell number L. rhamnosus: 3.40 × 10^3
L. paracasei [3]; antibiotic 2 μg
  cell number L. paracasei: 2.00 × 10^4
L. delbrueckii [4]; antibiotic 2 μg
  cell number L. delbrueckii: 5.00 × 10^4
L. delbrueckii [5]; antibiotic 2 μg/ml
  survival counting L. delbrueckii: 6670 ± 610
L. delbrueckii [5]; antibiotic 5 μg/ml
  survival counting L. delbrueckii: 1170 ± 76
L. paracasei [6]; antibiotic 2 μg/ml
  survival counting L. paracasei: 3000 ± 500
L. paracasei [6]; antibiotic 5 μg/ml
  survival counting L. paracasei: 4300 ± 445
L. rhamnosus [7]; antibiotic 2 μg/ml
  survival counting L. rhamnosus: 500 ± 50
L. rhamnosus [7]; antibiotic 5 μg/ml
  survival counting L. rhamnosus: 370 ± 10

## CC[C@H]1OC(=O)[C@H](C)[C@@H](O[C@H]2C[C@@](C)(OC)[C@@H](O)[C@H](C)O2)[C@H](C)[C@@H](O[C@@H]2O[C@H](C)C[C@H](N(C)C)[C@H]2O)[C@](C)(O)C[C@@H](C)C(=O)[C@H](C)[C@@H](O)[C@]1(C)O [Eryc, erythromycin]
[1]
  MIC: 1 µg/mL (≈ 1.36 µM)
L. rhamnosus [2]; antibiotic 2 μg
  cell number L. rhamnosus: 5.07 × 10^4
L. paracasei [3]; antibiotic 2 μg
  cell number L. paracasei: 3.18 × 10^5
L. delbrueckii [4]; antibiotic 2 μg
  cell number L. delbrueckii: 3.16 × 10^5
